Experimental data as given in patent publication US9175036B2, “Antimicrobial water treatment membranes and production thereof” (BEN-GURION UNVERSITY OF THE NEGEV RESEARCH AND DEVELOPMENT …, priority 2009, dated 2015).
Values after ≈ are worked out from the molar mass of the structure shown. Square brackets hold non-standard residues; d marks the D form. Peptide text beside a SMILES is read from it. βAla = NCCC(=O)O

Assays:
biofilm [1] = test: Biovolume of biofilm on graft-polymerized RO membranes (FIGS. 4-6); type: cell-based; conditions: immobilized on RO membrane after graft polymerization and 1,4-butadiamine; FIGS. 4 and 5
Description: FIGS. 4 and 5 show the biovolume of biofilm on RO membranes modified with Cys-Modelin-1, whereas in FIG. 4: (A) is an unmodified membrane (control), (B) is after Graft polymerization (GP), (C) is after GP and 1,4-butadiamine, (D) is after GP, 1,4-butadiamine and MI (maleimide-hexanoic acid), and (E) is after GP, 1,4-butadiamine, MI and C-Modelin-1.
Another example for immobilization through multivalent system is shown in FIG. 6, showing the volume of the biofilm by graft polymerization with 0.2:0.2 M MA:PEGM and immobilization with All-D-Cys-Modelin-1. […] The inhibition was very much dependent of the graft polymerization step: Grafting by 0.2:0.2 M of monomers PEGMA:MA (see Scheme 6 for monomer structures) gave the best results.

Enterobacter = type: cell-based
Protocol: The IC50 is determined by an essay, suitable for the specific film-forming microorganism in question. For example, in the present invention, the Enterobacter assay, which is described in detail in the methods section below, was used to determine the antimicrobial activities of the tested peptides.
Quantitative Biofilm Growth Inhibition Assay in a 96-Wells Microtiter Plate:
Enterobacter culture (50 ml) was grown in tryptic soy broth media (TBS; prepared according to manufacturer instructions) overnight at 25° C. On the next day the turbidity of the culture was measured at 600 nm (Biomate 5 UV-Vis spectrophotometer, Thermo Fisher Scientific, Waltham, Mass.) and, if necessary, TSB was added to dilute the culture until the OD was 1.
Then 96 wells polystyrene microtiter plates (flat bottom, transparent, Becton Dickinson, Franklin Lakes, New-Jersey) were filled as following: Negative control wells (without bacteria) were filled with 125 μl TSB media and 25 μl of DDW:PBS1:1 buffer solution; Positive control wells (without peptide solution) were filled with 110 μl TSB media, 25 μl of DDW:PBS1:1 buffer solution and 15 μl of Enterobacter culture solution; Wells that contained AMPs at different concentrations were filled with 110 μl TSB media, 25 μl of peptide solution and 15 μl of Enterobacter culture solution.
The plates were incubated at 25° C. overnight. On the next day the plates were gently rinsed 5 times with distilled water to remove the planktonic bacteria and then dried at room temperature for 10 minutes. Then the biofilm on the walls of the wells was dyed by adding 200 μl, of 3% crystal violet (CV) to the wells. After 15 minutes at room temperature, the plates were gently rinsed 5 times with distilled water to remove excess dye and dried at room temperature for 10 minutes (Djordjevic, Wiedmann & McLandsborough 2002). The dry plates were filled with 200 μl ethanol, covered and gently agitated (Duomax 1030 rocking platform shaker, Heidolph, Kelheim, Germany) for 1 hour. The absorbance of extracted color was measured in a plate reading spectrophotometer (Infinite M200, Tecan, Mannedorf, Switzerland) at 595 nm.
The effect of linking the arm to a peptide, on the antimicrobial activity of the peptides was assessed by measuring the peptide activity in 96-microtitter plates in solution and comparing to activities of the normal peptides. Experiments were performed in water and in 3% NaCl solution. Table 6 presents the antimicrobial activity (IC50) of peptide-arm systems, in water and in 3% NaCl solution. Values were extracted from dose-response curves.
Different concentration solutions of peptides, bought or prepared as detailed in the methods section above, were prepared by diluting a stock solution with 1% ACN. Stock solution was prepared by dissolving water soluble peptides in DDW:PBS1:1. PBS (pH=7.4) was prepared by adding to 800 ml DDW, 8 grams NaCl, 0.2 grams KCl, 1.44 grams Na2HPO4 and 0.2 grams KH2PO4.
To evaluate whether attachment of a tether to the AMPs has an effect on the inhibitory potency, a PEGylated peptide (HS-PEG-D-Modelin-1) was prepared, and its inhibitory potency compared to that of the ‘normal’ peptide All-D-Modelin-1. Peptides were diluted in 2-fold serial dilutions, and the antibacterial activity of the peptides was determined in sterile 96-multititter plates.

biofilm [2] = test: Confocal microscope analysis of biofilm developed on modified RO membranes; type: cell-based; conditions: biofilm on RO membrane modified with the peptide
Protocol: b) Quantitative Measurements:
For biofilm growth measurements, modified membranes were tested in static conditions and in a flow-through system.
For static conditions membranes were glued with RTV 186 glue to a 1 cm×1 cm glass slides and were incubated in 24-wells plate, containing Green fluorescent protein (GFP) expressing Pseudomonas aeruginosa culture, for 18 hours (37° C.). Then, the membranes were washed with DDW to remove planktonic bacteria and the formed biofilm was detected by Leica DM 2500 confocal laser scanning microscope (CLSM, Wetzlar, Germany).
For the flow-through system, 1 cm×1 cm membranes were glued to a 2.6 cm×7.6 cm glass slide and the slide was placed in a flow cell. First, GFP expressing Pseudomonas aeruginosa was introduced to the cell and incubated for 1 hour. Then, the planktonic bacteria were washed out and sterile growth media was brought in to the cell with 50 ml/h flow rate. After 24 hours the sample was removed from the cell and biofilm fluorescence was detected by confocal laser scanning microscope. The dyed membranes were analyzed by a confocal laser scanning microscope.
Quantitative and qualitative indications for biofilm formation on modified vs. non modified RO membranes were checked.
The results of the confocal microscope analysis of the biofilm that developed on the different membranes showing reduced biofilm formation on the modified membranes are summarized in Table 15.

pronase E = type: in vitro ADME
Protocol: (§1) Proteolytic Stability Assay of Peptides:
Stock solution (0.56 mg/ml) of each peptide was prepared by dissolving the peptide in PBS (pH=7.4). To each 90 μl of peptide solution 10 μl of enzyme solution, containing either a mixture of 0.5 μg trypsin (0.05 mg/ml) and 0.5 μg chymotrypsin (0.05 mg/ml) or 4 μg pronase E (0.4 mg/ml) in 0.001M HCl, was added. The enzymatic degradation of the peptide was monitored at controlled temperature of 25° C. by RP-HPLC with detection at 220 nm using Phenomenex C18 4.6×250 mm column with 5 μm particle size and 110 Å pore size. Elution gradient was: t=0 minutes, B=15%; t=5 minutes, B=15%; t=40 minutes, B=70%; t=42 minutes, B=95%; t=52 minutes, B=95% (flow rate 1 ml/minute).
(§2) Enzymes concentrations were determined by preliminary experiment that was performed to screen for concentrations allowing complete degradation of C-Modelin-1 within 1-2 hours. 10 μl of enzyme solution with varying concentrations were added to 90 μl of peptide solution (0.56 mg/ml) and enzymatic degradation of the peptide was monitored by RP-HPLC.
The enzymatic degradation was monitored at a fixed temperature of 25° C. by RP-HPLC at 220 nm, as described before. Elution gradient started with 85% A/15% B for 5 minutes continued with 30% A/70% B for 35 minutes and ended with 5% A-95% B for 12 minutes.
All the enzymes were used in concentrations allowing complete degradation of C-Modelin-1 within […].

[3] = tested on: proteolytic enzymes (trypsin, chymotrypsin, pronase E); type: in vitro ADME
Protocol: Resistance to proteolysis can be determined according to trypsin, chymotrypsin or pronase E assay, as detailed below in the Methods section, namely by adding to each 90 μl of peptide solution, 10 μl of enzyme solution, containing either a mixture of 0.5 μg trypsin (0.05 mg/ml) and 0.5 μg chymotrypsin (0.05 mg/ml) or 4 μg pronase E (0.4 mg/ml) in 0.001M HCl. The enzymatic degradation of the peptide is monitored at controlled temperature of 25° C. A peptide can be considered to be resistant to proteolysis if it withstands this assay for at least 1 week, maintaining at least 90% of its initial concentration after this period.
as §1
Stock solution (0.56 mg/ml) of each peptide was prepared by dissolving the peptide in PBS (pH=7.4). […] The enzymatic degradation of the peptide was monitored at controlled temperature of 25° C. by RP-HPLC with detection at 220 nm using Phenomenex C18 4.6×250 mm column with 5 μm particle size and 110 Å pore size. […]
as §2, with “RP-HPLC. […]” for “RP-HPLC.”

SMILES | reduced biofilm growth (biofilm [1]) [%] | IC50 Normal conditions (Enterobacter) [µg/mL] | Biovolume (biofilm [2]) | Thickness (biofilm [2]) [μm] | IC50 (Enterobacter) [µg/mL] | digestion first detected after (pronase E) [min] | peptides completely degraded after (pronase E) [min] | other results
O=C(O)CCCCCN1C(=O)C=CC1=O [maleimide-hexanoic acid, 6-maleimidohexanoic acid] | 95 |  |  |  |  |  |  | 
N=C(N)NCCC[C@H](NC(=O)CNC(=O)CNC(=O)CNC(=O)[C@@H](N)CS)C(=O)N[C@@H](CCCNC(=N)N)C(=O)N[C@@H](Cc1c[nH]c2ccccc12)C(=O)N[C@@H](Cc1c[nH]c2ccccc12)C(=O)N[C@@H](CCCNC(=N)N)C(=O)N[C@@H](Cc1ccccc1)C(N)=O [CG3-Hexapeptide-4, CGGGRRWWRF-NH2] (H-CGGGRRWWRF-NH2; N-terminus assumed) |  | 160 (≈ 125 µM) | 8.9 * 10^4 μm^3 | 9.5 |  |  |  | IC50 in 3% Aqueous NaCl (Enterobacter): 150 µg/mL (≈ 117 µM)
CC(C)C[C@H](NC(=O)[C@H](CCCCN)NC(=O)CNC(=O)CNC(=O)CNC(=O)CNC(=O)[C@@H](N)CS)C(=O)N[C@@H](Cc1c[nH]c2ccccc12)C(=O)N[C@@H](CCCCN)C(=O)N[C@@H](CCCCN)C(=O)N[C@@H](Cc1c[nH]c2ccccc12)C(=O)N[C@@H](C)C(=O)N[C@@H](CCCCN)C(=O)N[C@@H](CCCCN)C(=O)N[C@@H](Cc1c[nH]c2ccccc12)C(=O)N[C@@H](CC(C)C)C(=O)N[C@@H](CCCCN)C(=O)N[C@@H](CC(C)C)C(=O)N[C@@H](Cc1c[nH]c2ccccc12)C(=O)N[C@@H](CCCCN)C(=O)N[C@@H](C)C(=O)N[C@@H](Cc1c[nH]c2ccccc12)C(=O)O [CG4-Modelin-1] (H-CGGGGKLWKKWAKKWLKLWKAW-OH; N-terminus assumed) |  | 100 (≈ 37.6 µM) | 9.3 * 10^4 μm^3 | 9.5 |  |  |  | 
CC(C)C[C@H](NC(=O)[C@H](CCCCN)NC(=O)[C@H](CC(C)C)NC(=O)[C@H](Cc1c[nH]c2ccccc12)NC(=O)[C@H](CCCCN)NC(=O)[C@H](CCCCN)NC(=O)[C@H](C)NC(=O)[C@H](Cc1c[nH]c2ccccc12)NC(=O)[C@H](CCCCN)NC(=O)[C@H](CCCCN)NC(=O)[C@H](Cc1c[nH]c2ccccc12)NC(=O)[C@H](CC(C)C)NC(=O)[C@H](CCCCN)NC(=O)[C@@H](N)CS)C(=O)N[C@@H](Cc1c[nH]c2ccccc12)C(=O)N[C@@H](CCCCN)C(=O)N[C@@H](C)C(=O)N[C@@H](Cc1c[nH]c2ccccc12)C(=O)O [C-Modelin-1, CKLWKKWAKKWLKLWKAW] (H-CKLWKKWAKKWLKLWKAW-OH) | 65 |  |  |  | 11 (≈ 4.52 µM) | 5 | 135 | 
CC(C)C[C@H](NC(=O)[C@H](CCCCN)NC(=O)[C@H](CC(C)C)NC(=O)[C@H](Cc1c[nH]c2ccccc12)NC(=O)[C@H](CCCCN)NC(=O)[C@H](CCCCN)NC(=O)[C@H](C)NC(=O)[C@H](Cc1c[nH]c2ccccc12)NC(=O)[C@H](CCCCN)NC(=O)[C@H](CCCCN)NC(=O)[C@H](Cc1c[nH]c2ccccc12)NC(=O)[C@H](CC(C)C)NC(=O)[C@H](CCCCN)NC(=O)[C@@H](N)CS)C(=O)N[C@@H](Cc1c[nH]c2ccccc12)C(=O)N[C@@H](CCCCN)C(=O)N[C@@H](C)C(=O)N[C@@H](Cc1c[nH]c2ccccc12)C(=O)NCCC(=O)O [C-Modelin-1-βAla, CKLWKKWAKKWLKLWKAW-βAla] (H-CKLWKKWAKKWLKLWKAW[βAla]-OH) |  |  |  |  | 4 (≈ 1.6 µM) | 5 | 135 | 
CC(C)C[C@@H](NC(=O)[C@@H](CCCCN)NC(=O)[C@H](N)CS)C(=O)N[C@H](Cc1c[nH]c2ccccc12)C(=O)N[C@H](CCCCN)C(=O)N[C@H](CCCCN)C(=O)N[C@H](Cc1c[nH]c2ccccc12)C(=O)N[C@H](C)C(=O)N[C@H](CCCCN)C(=O)N[C@H](CCCCN)C(=O)N[C@H](Cc1c[nH]c2ccccc12)C(=O)N[C@H](CC(C)C)C(=O)N[C@H](CCCCN)C(=O)N[C@H](CC(C)C)C(=O)N[C@H](Cc1c[nH]c2ccccc12)C(=O)N[C@H](CCCCN)C(=O)N[C@H](C)C(=O)N[C@H](Cc1c[nH]c2ccccc12)C(=O)O [All-D C-Modelin-1, CKLWKKWAKKWLKLWKAW] (H-[dC][dK][dL][dW][dK][dK][dW][dA][dK][dK][dW][dL][dK][dL][dW][dK][dA][dW]-OH) |  |  |  |  | 10 (≈ 4.11 µM) |  |  | higher stability compared with the unprotected Cys-Modelin-1 [3]: over 100 fold; remained stable when treated with the proteolytic enzymes [3]: over 2 weeks
